Measured values published in ChEMBL document CHEMBL4184081, “Discovery of potent and selective inhibitors of calmodulin-dependent kinase II (CaMKII)” (Bioorg Med Chem Lett, 2018).
pEC50, pIC50: −log10 of the molar value. In brackets after ≈: the same amount, converted by molar mass.

Columns and labels:
[1] = target: Voltage-gated inwardly rectifying potassium channel KCNH2 (Homo sapiens, UniProt Q12809); experiment: Inhibition of human ERG
[2] = Clearance in rat at 1 mg/kg, iv; type: ADME, organism-based; details: in vivo
[3] = Unbound plasma concentration in rat; type: ADME, organism-based
[4] = Half life in rat at 1 mg/kg, iv; type: ADME, organism-based; details: in vivo
[5] = Unbound plasma concentration in human; type: ADME, organism-based
[6] = Half life in rat liver microsomes; type: ADME, microsome
[7] = Thermodynamic aqueous solubility of the compound in pH 7.2; type: physicochemical; details: buffer, read-out: Therm_solubility
[8] = Thermodynamic aqueous solubility of the compound in pH 2.2; type: physicochemical; details: buffer, read-out: Therm_solubility
[9] = Volume of distribution at steady state in rat at 1 mg/kg, iv; type: ADME, organism-based; details: in vivo, read-out: Vdss
[10] = Half life in human liver microsomes; type: ADME, microsome
[11] = target: CaM kinase II delta/gamma (Rattus norvegicus, UniProt P11730+P15791); experiment: Inhibition of CaMK2gamma/delta in neonatal rat ventricular myocytes assessed as phospholamban phosphorylation after 4 hrs by Hoechst 33342 fluorescence based assay; type: cell-based
Sequence of CaM kinase II delta/gamma (P15791 whole entry): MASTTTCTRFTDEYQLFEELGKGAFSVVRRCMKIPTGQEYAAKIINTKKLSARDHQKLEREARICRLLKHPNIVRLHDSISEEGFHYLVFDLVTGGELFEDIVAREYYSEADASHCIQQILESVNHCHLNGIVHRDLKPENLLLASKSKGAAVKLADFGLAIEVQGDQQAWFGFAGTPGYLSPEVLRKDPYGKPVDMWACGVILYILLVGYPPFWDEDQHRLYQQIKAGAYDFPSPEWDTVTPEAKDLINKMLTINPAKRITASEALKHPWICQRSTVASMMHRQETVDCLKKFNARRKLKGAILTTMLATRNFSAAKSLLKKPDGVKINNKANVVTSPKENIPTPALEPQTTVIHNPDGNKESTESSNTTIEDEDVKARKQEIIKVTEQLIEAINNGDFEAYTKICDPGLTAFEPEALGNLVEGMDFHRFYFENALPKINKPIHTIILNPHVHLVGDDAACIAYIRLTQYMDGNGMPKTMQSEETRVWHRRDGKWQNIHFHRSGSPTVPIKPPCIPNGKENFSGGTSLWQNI
Sequence of CaM kinase II delta/gamma (P11730 whole entry): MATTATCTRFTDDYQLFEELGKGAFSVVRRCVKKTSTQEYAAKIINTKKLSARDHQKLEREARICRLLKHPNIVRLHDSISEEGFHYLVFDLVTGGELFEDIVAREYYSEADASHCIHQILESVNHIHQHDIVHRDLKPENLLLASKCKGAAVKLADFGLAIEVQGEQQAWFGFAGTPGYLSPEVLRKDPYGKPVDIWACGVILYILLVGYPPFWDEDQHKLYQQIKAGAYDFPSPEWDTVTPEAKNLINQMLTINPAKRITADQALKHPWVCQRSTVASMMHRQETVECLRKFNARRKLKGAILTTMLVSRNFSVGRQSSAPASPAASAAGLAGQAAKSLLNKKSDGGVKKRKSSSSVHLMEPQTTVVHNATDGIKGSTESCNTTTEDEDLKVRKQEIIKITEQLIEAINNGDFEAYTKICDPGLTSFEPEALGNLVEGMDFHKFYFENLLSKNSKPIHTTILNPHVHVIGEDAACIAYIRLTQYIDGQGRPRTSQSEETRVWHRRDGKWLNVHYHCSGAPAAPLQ

[12] = Half life in dog liver microsomes; type: ADME, Canis lupus familiaris, microsome
[13] = Unbound plasma concentration in dog; type: ADME, organism-based, Canis lupus familiaris
CaM kinase II alpha/beta = CaM kinase II alpha/beta (Rattus norvegicus, UniProt P08413+P11275); experiment: Inhibition of CaMK2alpha/beta in neonatal rat cortical neurons assessed as phospholamban phosphorylation after 4 hrs by Hoechst 33342 fluorescence-based assay; type: protein-complex assay
Sequence of CaM kinase II alpha/beta (P11275 whole entry): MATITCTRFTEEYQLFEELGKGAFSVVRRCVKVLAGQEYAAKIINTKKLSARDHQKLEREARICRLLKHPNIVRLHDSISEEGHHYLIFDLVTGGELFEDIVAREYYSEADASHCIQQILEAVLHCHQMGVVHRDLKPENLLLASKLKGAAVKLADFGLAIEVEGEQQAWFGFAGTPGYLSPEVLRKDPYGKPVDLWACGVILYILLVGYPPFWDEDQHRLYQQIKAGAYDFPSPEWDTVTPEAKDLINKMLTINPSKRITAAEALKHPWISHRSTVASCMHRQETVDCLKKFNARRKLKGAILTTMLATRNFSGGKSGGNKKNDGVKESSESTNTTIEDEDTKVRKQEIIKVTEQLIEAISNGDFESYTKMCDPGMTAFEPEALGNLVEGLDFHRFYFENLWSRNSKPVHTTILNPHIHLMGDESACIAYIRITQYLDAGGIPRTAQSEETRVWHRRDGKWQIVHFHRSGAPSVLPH
Sequence of CaM kinase II alpha/beta (P08413 whole entry): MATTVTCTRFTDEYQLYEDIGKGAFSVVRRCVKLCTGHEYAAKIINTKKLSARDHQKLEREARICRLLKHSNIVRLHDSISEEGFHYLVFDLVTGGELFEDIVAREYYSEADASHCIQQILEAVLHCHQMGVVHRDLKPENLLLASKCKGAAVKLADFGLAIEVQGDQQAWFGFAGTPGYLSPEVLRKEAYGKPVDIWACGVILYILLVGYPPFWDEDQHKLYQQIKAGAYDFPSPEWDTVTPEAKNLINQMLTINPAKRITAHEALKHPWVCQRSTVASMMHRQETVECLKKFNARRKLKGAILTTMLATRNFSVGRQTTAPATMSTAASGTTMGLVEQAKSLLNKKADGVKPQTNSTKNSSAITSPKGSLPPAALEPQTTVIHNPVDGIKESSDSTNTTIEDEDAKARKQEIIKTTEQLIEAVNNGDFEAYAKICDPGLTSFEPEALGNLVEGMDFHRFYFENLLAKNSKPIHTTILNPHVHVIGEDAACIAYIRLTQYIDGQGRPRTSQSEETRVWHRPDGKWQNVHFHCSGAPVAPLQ

Cytochrome P450 3A4 = Cytochrome P450 3A4 (Homo sapiens, UniProt P08684); experiment: Inhibition of CYP3A4 (unknown origin); type: ADME
Sequence of Cytochrome P450 3A4 (P08684 whole entry): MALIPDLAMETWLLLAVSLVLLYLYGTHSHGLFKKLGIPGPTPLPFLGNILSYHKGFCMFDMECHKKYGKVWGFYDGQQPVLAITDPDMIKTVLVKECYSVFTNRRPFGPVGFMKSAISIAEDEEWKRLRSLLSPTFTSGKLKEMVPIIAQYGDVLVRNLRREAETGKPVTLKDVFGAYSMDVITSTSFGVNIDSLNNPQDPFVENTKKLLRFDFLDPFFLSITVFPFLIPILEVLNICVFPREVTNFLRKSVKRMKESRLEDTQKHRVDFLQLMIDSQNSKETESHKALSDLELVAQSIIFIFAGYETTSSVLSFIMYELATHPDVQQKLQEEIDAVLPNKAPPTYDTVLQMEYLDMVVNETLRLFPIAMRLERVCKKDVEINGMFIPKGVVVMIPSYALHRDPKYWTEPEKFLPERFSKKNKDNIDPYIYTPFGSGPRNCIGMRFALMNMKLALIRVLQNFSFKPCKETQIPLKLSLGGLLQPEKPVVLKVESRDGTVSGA

Cytochrome P450 2C19 = Cytochrome P450 2C19 (Homo sapiens, UniProt P33261); experiment: Inhibition of CYP2C19 (unknown origin); type: ADME
Sequence of Cytochrome P450 2C19 (P33261 whole entry): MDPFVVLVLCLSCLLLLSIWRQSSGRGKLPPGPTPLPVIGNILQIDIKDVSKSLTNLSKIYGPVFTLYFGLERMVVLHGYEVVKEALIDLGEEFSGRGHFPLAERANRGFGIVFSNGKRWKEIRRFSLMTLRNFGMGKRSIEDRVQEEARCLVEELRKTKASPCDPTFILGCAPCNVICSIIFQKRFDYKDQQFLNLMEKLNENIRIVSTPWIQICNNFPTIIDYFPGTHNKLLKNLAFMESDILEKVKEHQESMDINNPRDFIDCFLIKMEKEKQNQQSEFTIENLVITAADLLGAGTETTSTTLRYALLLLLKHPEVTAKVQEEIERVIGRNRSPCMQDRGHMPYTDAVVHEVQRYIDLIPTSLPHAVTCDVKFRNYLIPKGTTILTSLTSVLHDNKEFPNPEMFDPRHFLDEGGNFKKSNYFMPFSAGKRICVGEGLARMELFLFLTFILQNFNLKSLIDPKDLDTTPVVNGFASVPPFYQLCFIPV

Cytochrome P450 2D6 = Cytochrome P450 2D6 (Homo sapiens, UniProt P10635); experiment: Inhibition of CYP2D6 (unknown origin); type: ADME
Sequence of Cytochrome P450 2D6 (P10635 whole entry): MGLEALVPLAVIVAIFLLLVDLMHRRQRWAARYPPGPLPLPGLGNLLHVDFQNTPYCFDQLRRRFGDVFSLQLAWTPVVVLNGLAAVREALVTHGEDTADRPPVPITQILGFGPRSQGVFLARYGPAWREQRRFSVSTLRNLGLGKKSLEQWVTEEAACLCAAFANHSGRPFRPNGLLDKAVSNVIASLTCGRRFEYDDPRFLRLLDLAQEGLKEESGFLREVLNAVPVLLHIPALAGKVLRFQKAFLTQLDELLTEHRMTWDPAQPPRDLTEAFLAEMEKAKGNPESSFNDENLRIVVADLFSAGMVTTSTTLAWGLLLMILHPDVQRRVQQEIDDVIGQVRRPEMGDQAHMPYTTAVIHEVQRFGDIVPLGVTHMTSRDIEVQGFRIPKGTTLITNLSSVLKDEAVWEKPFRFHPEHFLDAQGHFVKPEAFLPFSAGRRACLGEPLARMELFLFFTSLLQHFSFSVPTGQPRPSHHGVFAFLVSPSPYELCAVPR

Cytochrome P450 2C9 = Cytochrome P450 2C9 (Homo sapiens, UniProt P11712); experiment: Inhibition of CYP2C9 (unknown origin); type: ADME
[14] = AUC (0 to infinity) in rat at 5 mg/kg, po; type: ADME, organism-based; set-up: dose 5 mg/kg, time infinity, route oral; details: in vivo
[15] = Oral bioavailability in rat at 5 mg/kg; type: ADME, organism-based; details: in vivo
Cytochrome P450 1A2 = target: T1, Cytochrome P450 1A2 (Homo sapiens, UniProt P05177); experiment: Inhibition of CYP1A2 (unknown origin); type: ADME
T1 sequence (P05177 whole entry): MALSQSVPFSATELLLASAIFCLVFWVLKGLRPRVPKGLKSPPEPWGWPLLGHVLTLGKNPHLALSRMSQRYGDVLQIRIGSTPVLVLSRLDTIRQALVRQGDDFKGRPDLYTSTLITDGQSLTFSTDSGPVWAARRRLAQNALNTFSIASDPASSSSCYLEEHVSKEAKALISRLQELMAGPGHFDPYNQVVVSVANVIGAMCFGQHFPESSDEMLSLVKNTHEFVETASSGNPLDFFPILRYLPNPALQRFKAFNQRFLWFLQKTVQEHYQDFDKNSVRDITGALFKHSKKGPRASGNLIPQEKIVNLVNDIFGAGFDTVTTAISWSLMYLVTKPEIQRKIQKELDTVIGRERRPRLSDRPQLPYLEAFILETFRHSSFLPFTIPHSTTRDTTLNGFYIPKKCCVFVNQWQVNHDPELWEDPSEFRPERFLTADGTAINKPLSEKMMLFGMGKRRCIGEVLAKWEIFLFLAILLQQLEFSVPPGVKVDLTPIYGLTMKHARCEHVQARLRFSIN

Sequence of Voltage-gated inwardly rectifying potassium channel KCNH2 (Q12809 whole entry): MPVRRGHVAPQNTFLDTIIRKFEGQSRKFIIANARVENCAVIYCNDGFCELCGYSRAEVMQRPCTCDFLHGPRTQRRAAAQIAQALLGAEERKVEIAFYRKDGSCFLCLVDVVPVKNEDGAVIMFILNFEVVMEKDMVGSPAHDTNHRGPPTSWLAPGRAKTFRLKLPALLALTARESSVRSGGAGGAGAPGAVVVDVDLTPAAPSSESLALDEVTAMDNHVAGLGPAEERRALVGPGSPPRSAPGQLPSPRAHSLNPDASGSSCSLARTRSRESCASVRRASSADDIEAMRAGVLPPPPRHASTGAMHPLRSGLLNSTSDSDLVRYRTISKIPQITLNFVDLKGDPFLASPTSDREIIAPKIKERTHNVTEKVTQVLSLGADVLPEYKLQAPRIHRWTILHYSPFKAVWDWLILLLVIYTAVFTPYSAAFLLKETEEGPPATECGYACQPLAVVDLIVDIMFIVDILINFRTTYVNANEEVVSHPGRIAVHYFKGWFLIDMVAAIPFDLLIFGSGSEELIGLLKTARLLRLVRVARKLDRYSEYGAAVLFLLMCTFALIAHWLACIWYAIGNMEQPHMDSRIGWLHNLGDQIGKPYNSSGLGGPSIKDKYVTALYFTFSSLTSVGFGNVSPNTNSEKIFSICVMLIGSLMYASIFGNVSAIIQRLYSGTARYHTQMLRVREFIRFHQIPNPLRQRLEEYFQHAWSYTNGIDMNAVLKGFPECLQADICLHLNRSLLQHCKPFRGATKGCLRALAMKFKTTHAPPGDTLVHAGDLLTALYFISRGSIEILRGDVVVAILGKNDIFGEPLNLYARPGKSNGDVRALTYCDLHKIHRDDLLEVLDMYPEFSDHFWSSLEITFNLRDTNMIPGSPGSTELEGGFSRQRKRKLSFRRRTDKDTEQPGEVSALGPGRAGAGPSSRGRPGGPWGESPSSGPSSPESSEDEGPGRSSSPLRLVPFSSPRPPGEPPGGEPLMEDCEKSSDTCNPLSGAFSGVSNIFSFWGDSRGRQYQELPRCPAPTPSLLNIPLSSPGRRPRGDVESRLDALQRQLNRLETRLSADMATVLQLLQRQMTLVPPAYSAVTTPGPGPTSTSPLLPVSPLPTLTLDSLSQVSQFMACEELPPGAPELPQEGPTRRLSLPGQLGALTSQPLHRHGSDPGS

| clearance [2] | fraction unbound [3] | half-life [4] | fraction unbound [5] | half-life [6] | solubility thermodynamic [7] | solubility thermodynamic [8] | Vd [9] | half-life [10] | pEC50 [11] | half-life [12] | fraction unbound [13] | pEC50 (CaM kinase II alpha/beta) | Structure (SMILES) | pIC50 [1] | other results |
| --- | --- | --- | --- | --- | --- | --- | --- | --- | --- | --- | --- | --- | --- | --- | --- |
| – | – | – | – | – | – | – | – | – | – | – | – | – | CCN(CC)CCNC(=O)c1ccnc(-c2cnn3ccc(-c4cccs4)nc23)c1 | 5.93 | – |
| – | – | – | – | – | – | – | – | – | – | – | – | – | CCc1cc(C(=O)NC[C@H](C)N(CC)CC)cc(-c2cnn3ccc(-c4cccs4)nc23)n1 | 5.48 | – |
| 80.8 mL/min/kg | 0.363 | 353 min | 0.177 | 48 min | 8400 µg/mL (≈ 16.6 mM) | 15000 µg/mL (≈ 29.7 mM) | 22.1 L/kg | 58 min | 8.21 | 27 min | 0.291 | 6.56 | CCN(CC)[C@@H](C)CNC(=O)c1cc(-c2cnn3ccc(-c4cccs4)nc23)nc(N2CC(O)C2)c1 | < 4.52 | – |
| 25.5 mL/min/kg | 0.151 | 258 min | 0.071 | 61 min | 200 µg/mL (≈ 0.385 mM) | > 20000 µg/mL | 7.34 L/kg | 62 min | 8.13 | 43 min | 0.159 | 6.92 | CCN(CC)[C@@H](C)CNC(=O)c1cc(-c2cnn3ccc(-c4cccs4)nc23)nc(N2CC(OC)C2)c1 | – | pIC50 (Cytochrome P450 3A4): < 4.60; pIC50 (Cytochrome P450 2C19): < 4.60; pIC50 (Cytochrome P450 2D6): < 4.60; pIC50 (Cytochrome P450 2C9): < 4.60; AUC(0-inf) [14]: 3 µM·h; bioavailability [15]: 73%; pIC50 (Cytochrome P450 1A2): < 4.60 |
| – | – | – | – | – | – | – | – | – | – | – | – | – | CCN(CC)[C@@H](C)CNC(=O)c1ccnc(-c2cnn3ccc(-c4cccs4)nc23)c1 | 6.14 | – |
